Several values for one entry are separate records, joined by “and”; a condition that tells them apart may be missing. Identical values can stand only once. Like-named read-outs stand apart in the source and are kept apart here.
Experiments:
[1] = test system: ARE gene family (AKR1B10, AKR1C1, AKR1C2, CYP1B1, FTH1P, FTL, G6PD, GCLM, NQO2, SLC7A11, TXNRD1, UGT1A1, UGT1A9, YWHAZ, CD36, CYP1A1, GCLC, HMOX1, NQO1, PSME2 …)
[2] = test system: genes specific for sensitization (BRAK, CTSS, DAPK2, FABP4, HSP27, IL18, HSP90, IL1R2, TPSAB1, CXCR1, DEFB1, DHFR, EHF, IVL, KRT4, MELANA, NGAL, PDZK1IP1, PI3 …); experiment: Expression of the other (non-ARE) sensitization-specific genes in EPISKIN reconstructed skin (quantitative RT-PCR); type: cell-based, human

Nc1ccccc1O [2-aminophenol]
CYP1A1 expression compared to control ([1]; 10%): 122.0 | CYP1A1 grade (NUMBER OF GENES) ([1]; 10%): 1 (If the expression is greater than 1.3 compared to the control, a grade of 11s given) | CYP1B1 expression compared to control ([1]; 10%): 45.1 | CYP1B1 grade (NUMBER OF GENES) ([1]; 10%): 1 (If the expression is greater than 1.3 compared to the control, a grade of 11s given) | FTH1P expression compared to control ([1]; 10%): 1.5 | FTH1P grade (NUMBER OF GENES) ([1]; 10%): 1 (If the expression is greater than 1.3 compared to the control, a grade of 11s given) | FTL expression compared to control ([1]; 10%): 2.5 | FTL grade (NUMBER OF GENES) ([1]; 10%): 1 (If the expression is greater than 1.3 compared to the control, a grade of 11s given) | GCLC expression compared to control ([1]; 10%): 2.3 | GCLC grade (NUMBER OF GENES) ([1]; 10%): 1 (If the expression is greater than 1.3 compared to the control, a grade of 11s given) | GCLM expression compared to control ([1]; 10%): 4.6 | GCLM grade (NUMBER OF GENES) ([1]; 10%): 1 (If the expression is greater than 1.3 compared to the control, a grade of 11s given) | HMOX1 expression compared to control ([1]; 10%): 1.7 | HMOX1 grade (NUMBER OF GENES) ([1]; 10%): 1 (If the expression is greater than 1.3 compared to the control, a grade of 11s given) | NQO1 expression compared to control ([1]; 10%): 2.5 | NQO1 grade (NUMBER OF GENES) ([1]; 10%): 1 (If the expression is greater than 1.3 compared to the control, a grade of 11s given) | NQO2 expression compared to control ([1]; 10%): 1.4 | NQO2 grade (NUMBER OF GENES) ([1]; 10%): 1 (If the expression is greater than 1.3 compared to the control, a grade of 11s given) | S100A8 expression compared to control ([1]; 10%): 1.2 | S100A8 grade (NUMBER OF GENES) ([1]; 10%): 0 (if this expression is lower, the grade is 0) | SLC7A11 expression compared to control ([1]; 10%): 3.8 | SLC7A11 grade (NUMBER OF GENES) ([1]; 10%): 1 (If the expression is greater than 1.3 compared to the control, a grade of 11s given) | TOTAL ARE (NUMBER OF GENES) ([1]; 10%): 14 | TXNRD1 expression compared to control ([1]; 10%): 7.6 | TXNRD1 grade (NUMBER OF GENES) ([1]; 10%): 1 (If the expression is greater than 1.3 compared to the control, a grade of 11s given) | UGT1A1 expression compared to control ([1]; 10%): 1.8 | UGT1A1 grade (NUMBER OF GENES) ([1]; 10%): 1 (If the expression is greater than 1.3 compared to the control, a grade of 11s given) | UGT1A9 expression compared to control ([1]; 10%): 1.2 | UGT1A9 grade (NUMBER OF GENES) ([1]; 10%): 0 (if this expression is lower, the grade is 0) | AHR expression compared to control ([1]; 50%): 1.3 | AHR grade (NUMBER OF GENES) ([1]; 50%): 0 (if this expression is lower, the grade is 0) | AKR1B10 expression compared to control ([1]; 50%): 1.3 | AKR1B10 grade (NUMBER OF GENES) ([1]; 50%): 1 (If the expression is greater than 1.3 compared to the control, a grade of 11s given) | AKR1C1 expression compared to control ([1]; 50%): 8.6 | AKR1C1 grade (NUMBER OF GENES) ([1]; 50%): 1 (If the expression is greater than 1.3 compared to the control, a grade of 11s given) | AKR1C2 expression compared to control ([1]; 50%): 3.3 | AKR1C2 grade (NUMBER OF GENES) ([1]; 50%): 1 (If the expression is greater than 1.3 compared to the control, a grade of 11s given) | ARE >1.3 (NUMBER OF GENES) ([1]; 50%): 14 | CD36 expression compared to control ([1]; 50%): 0.7 | CD36 grade (NUMBER OF GENES) ([1]; 50%): 0 (if this expression is lower, the grade is 0) | CYP1A1 expression compared to control ([1]; 50%): 66.5 | CYP1A1 grade (NUMBER OF GENES) ([1]; 50%): 1 (If the expression is greater than 1.3 compared to the control, a grade of 11s given) | CYP1B1 expression compared to control ([1]; 50%): 37.7 | CYP1B1 grade (NUMBER OF GENES) ([1]; 50%): 1 (If the expression is greater than 1.3 compared to the control, a grade of 11s given) | FTH1P expression compared to control ([1]; 50%): 2.0 | FTH1P grade (NUMBER OF GENES) ([1]; 50%): 1 (If the expression is greater than 1.3 compared to the control, a grade of 11s given) | FTL expression compared to control ([1]; 50%): 3.5 | FTL grade (NUMBER OF GENES) ([1]; 50%): 1 (If the expression is greater than 1.3 compared to the control, a grade of 11s given) | GCLC expression compared to control ([1]; 50%): 4.0 | GCLC grade (NUMBER OF GENES) ([1]; 50%): 1 (If the expression is greater than 1.3 compared to the control, a grade of 11s given) | GCLM expression compared to control ([1]; 50%): 4.7 | GCLM grade (NUMBER OF GENES) ([1]; 50%): 1 (If the expression is greater than 1.3 compared to the control, a grade of 11s given) | HMOX1 expression compared to control ([1]; 50%): 1.9 | HMOX1 grade (NUMBER OF GENES) ([1]; 50%): 1 (If the expression is greater than 1.3 compared to the control, a grade of 11s given) | NQO1 expression compared to control ([1]; 50%): 3.3 | NQO1 grade (NUMBER OF GENES) ([1]; 50%): 1 (If the expression is greater than 1.3 compared to the control, a grade of 11s given) | NQO2 expression compared to control ([1]; 50%): 1.3 | NQO2 grade (NUMBER OF GENES) ([1]; 50%): 0 (if this expression is lower, the grade is 0) | S100A8 expression compared to control ([1]; 50%): 1.3 | S100A8 grade (NUMBER OF GENES) ([1]; 50%): 1 (If the expression is greater than 1.3 compared to the control, a grade of 11s given) | SLC7A11 expression compared to control ([1]; 50%): 6.0 | SLC7A11 grade (NUMBER OF GENES) ([1]; 50%): 1 (If the expression is greater than 1.3 compared to the control, a grade of 11s given) | TOTAL ARE (NUMBER OF GENES) ([1]; 50%): 14 | TXNRD1 expression compared to control ([1]; 50%): 6.4 | TXNRD1 grade (NUMBER OF GENES) ([1]; 50%): 1 (If the expression is greater than 1.3 compared to the control, a grade of 11s given) | UGT1A1 expression compared to control ([1]; 50%): 2.1 | UGT1A1 grade (NUMBER OF GENES) ([1]; 50%): 1 (If the expression is greater than 1.3 compared to the control, a grade of 11s given) | UGT1A9 expression compared to control ([1]; 50%): 0.4 | UGT1A9 grade (NUMBER OF GENES) ([1]; 50%): 0 (if this expression is lower, the grade is 0) | BRAK grade (NUMBER OF GENES) [2]: 0 (key: If the expression is greater than 1.3 compared to the control, a grade of 11s given; if this expression is lower, the grade is 0) | CTSS expression compared to control [2]: 1.3 and 1.2 and 1.4 | DAPK2 expression compared to control [2]: 1.0 and 0.9 | DAPK2 grade (NUMBER OF GENES) [2]: 0 (key: If the expression is greater than 1.3 compared to the control, a grade of 11s given; if this expression is lower, the grade is 0) | DEFB1 expression compared to control [2]: 1.9 and 1.8 and 1.4 and 1.1 | DHFR expression compared to control [2]: 0.9 and 1.2 | DHFR grade (NUMBER OF GENES) [2]: 0 (key: If the expression is greater than 1.3 compared to the control, a grade of 11s given; if this expression is lower, the grade is 0) | EHF expression compared to control [2]: 1.7 and 1.5 and 1.4 and 1.2 | FABP4 expression compared to control [2]: 1.1 and 0.7 and 0.9 | FABP4 grade (NUMBER OF GENES) [2]: 0 (key: If the expression is greater than 1.3 compared to the control, a grade of 11s given; if this expression is lower, the grade is 0) | HSP27 expression compared to control [2]: 1.0 and 1.1 and 0.8 | HSP27 grade (NUMBER OF GENES) [2]: 0 (key: If the expression is greater than 1.3 compared to the control, a grade of 11s given; if this expression is lower, the grade is 0) | HSP90 expression compared to control [2]: 1.5 and 1.2 and 1.0 | IL18 expression compared to control [2]: 0.9 and 0.8 and 1.1 | IL18 grade (NUMBER OF GENES) [2]: 0 (key: If the expression is greater than 1.3 compared to the control, a grade of 11s given; if this expression is lower, the grade is 0) | IVL expression compared to control [2]: 1.8 and 1.3 and 0.9 | KRT4 expression compared to control [2]: 1.7 and 1.1 | MELANA grade (NUMBER OF GENES) [2]: 0 (key: If the expression is greater than 1.3 compared to the control, a grade of 11s given; if this expression is lower, the grade is 0) | NGAL expression compared to control [2]: 1.8 and 1.9 and 1.5 and 1.1 | P13 expression compared to control [2]: 1.5 and 1.4 and 1.2 and 1.3 | PDZK1iP1 expression compared to control [2]: 1.0 | PDZK1iP1 grade (NUMBER OF GENES) [2]: 0 (key: If the expression is greater than 1.3 compared to the control, a grade of 11s given; if this expression is lower, the grade is 0) | SERPINB3 expression compared to control [2]: 1.4 and 1.2 and 1.3
